We go through 13 compounds from patent US7098340B2, “Benzyl sulfonamide derivatives” (Warner Lambert Company LLC, priority 2003, dated 2006).

SMILES strings stand for the structures.

This assay concerns the target T1, androgen receptor (Homo sapiens, UniProt P10275).
T1 sequence (P10275 1-920 Q868H): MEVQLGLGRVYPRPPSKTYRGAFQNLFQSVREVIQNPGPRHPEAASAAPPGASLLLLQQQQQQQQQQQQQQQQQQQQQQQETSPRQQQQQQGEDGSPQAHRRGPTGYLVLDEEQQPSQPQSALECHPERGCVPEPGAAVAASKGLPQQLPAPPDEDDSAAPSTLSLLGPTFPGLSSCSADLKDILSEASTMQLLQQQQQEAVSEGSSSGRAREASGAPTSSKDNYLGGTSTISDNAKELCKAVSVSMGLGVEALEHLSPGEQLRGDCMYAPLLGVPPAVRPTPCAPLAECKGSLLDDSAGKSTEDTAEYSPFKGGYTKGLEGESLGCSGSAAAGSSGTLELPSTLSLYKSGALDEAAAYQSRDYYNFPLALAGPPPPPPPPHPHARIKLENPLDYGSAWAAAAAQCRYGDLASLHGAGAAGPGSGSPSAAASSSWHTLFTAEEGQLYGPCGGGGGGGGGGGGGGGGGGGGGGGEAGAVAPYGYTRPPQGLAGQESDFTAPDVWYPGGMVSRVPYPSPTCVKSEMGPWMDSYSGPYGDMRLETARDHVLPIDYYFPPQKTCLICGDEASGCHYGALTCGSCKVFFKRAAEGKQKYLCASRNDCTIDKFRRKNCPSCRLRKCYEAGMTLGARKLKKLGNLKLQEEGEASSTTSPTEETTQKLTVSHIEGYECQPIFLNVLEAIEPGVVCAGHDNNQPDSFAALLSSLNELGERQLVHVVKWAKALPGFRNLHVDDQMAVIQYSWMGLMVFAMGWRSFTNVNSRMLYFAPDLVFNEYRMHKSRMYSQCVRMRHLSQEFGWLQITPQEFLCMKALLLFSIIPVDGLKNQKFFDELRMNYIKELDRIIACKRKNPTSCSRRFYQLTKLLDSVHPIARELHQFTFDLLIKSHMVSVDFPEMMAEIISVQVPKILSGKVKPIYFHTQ
Nature of the assay: AR Antagonist Cell Assay (MMTV-luciferase reporter, DHT-stimulated). The format is cell-based. Conditions: MDA-MB453-MMTV clone 54-19 cells; antagonism of 100 pM DHT, 17 hr, luciferase readout. As for the experimental part: The compounds ability to antagonize the effects of androgen on the androgen receptor were determined in the protocol described immediately below.
Experimental Procedure for AR Antagonist Cell Assay
Cell line: MDA-MB453-MMTV clone 54–19. This cell line is a stable transfected cell line with MDA-MB453 cell background (human breast tumor cell expressing high level of androgen receptor). A MMTV minimal promoter containing ARE was first cloned in front of a firefly luciferase reporter gene. Then the cascade was cloned into transfection vector pUV120puro. Electroporation method was used for transfecting MDA-MB-453 cell. Puromycin resistant stable cell line was selected.
Cell Culture Media and Reagents:
Culture medium: DMEM (high glucose, Gibco cat #: 11960-044), 10% FBS, and 1% L-glutamine
Plating medium: DMEM (phenol red free), 10% charcoal treated HyClone serum, 1% L-glutamine
Assay medium: DMEM (phenol red free), 1% charcoal treated HyClone serum, 1% L-glutamine, and 1% penicillin/streptomycin
3× luciferase buffer: 2% beta-mercaptoethanol, 0.6% ATP, 0.0135% luciferine in cell lysis buffer
• 1. Cells are maintained in culture medium, splitting cells when they reach 80–90% confluence • 2. To test compounds, 10,000 cells/well are plated to opaque 96 cell culture plate in 100 ul/well plating medium, culture for overnight at 37° C. in cell culture incubator • 3. Carefully remove plating medium, then add 80 ul/well of pre-warmed assay medium, add 10 ul/well testing compound (final concentration at 10 uM or 1 uM), incubate at 37° C. for 30 minutes • 4. Add 10 ul/well freshly prepared DHT (final concentration at 100 pM) to each well, incubate at 37° C. for 17 hr (overnight) • 5. Add 50 ul/well 3× luciferase buffer, incubate at room temperature for 5 minutes, then count on Luminometer.
The fold induction over background by 100 pM DHT in the absence of testing compounds is standardized as 100% and experimental result is expressed as percentage of inhibition by testing compounds.
For orientation: Reporter assays use an easily measured gene product as a stand-in for the process of interest.
In general, IC50 refers to the point on the concentration scale where inhibition reaches its midpoint. Regarding `O=c1cc(C(F)(F)F)c2cc(Cc3ccc(S(=O)(=O)NC4(CO)CCCC4)cc3)ccc2o1` [Example 167, N-(1-Hydroxymethyl-cyclopentyl)-4-(2-oxo-4-trifluoromethyl-2H-chromen-6-ylmethyl)benzenesulfonamide], the IC50 was greater than 10 µM.
`O=c1cc(C(F)(F)F)c2cc(Cc3ccc(S(=O)(=O)Nc4cccc(OC(F)(F)F)c4)cc3)ccc2o1` [Example 147, 4-(2-Oxo-4-trifluoromethyl-2H-chromen-6-ylmethyl)-N-(3-trifluoromethoxyphenyl)-benzenesulfonamide] yielded a 50% inhibitory concentration (IC50) of 8.58 µM.
As for `O=c1cc(C(F)(F)F)c2cc(Cc3ccc(S(=O)(=O)Nc4cccc5ncccc45)cc3)ccc2[nH]1` [Example 29, 4-(2-Oxo-4-trifluoromethyl-1,2-dihydroquinolin-6-ylmethyl)-N-quinolin-5-ylbenzenesulfonamide], the IC50 is greater than 10 µM.
For `COc1ccc(N(Cc2ccccc2)S(=O)(=O)c2ccc(Cc3ccc4[nH]c(=O)cc(C(F)(F)F)c4c3)cc2)cc1` [Example 45, N-Benzyl-N-(4-methoxyphenyl)-4-(2-oxo-4-trifluoromethyl-1,2-dihydroquinolin-6-ylmethyl)-benzenesulfonamide], the 50% inhibitory concentration (IC50) was greater than 10 µM.
As for `O=c1cc(C(F)(F)F)c2cc(Cc3ccc(S(=O)(=O)NCc4ccccc4Br)cc3)ccc2o1` [Example 203, N-(2-Bromobenzyl)-4-(2-oxo-4-trifluoromethyl-2H-chromen-6-ylmethyl)benzenesulfonamide], the figure is 2.19 µM.
In the case of `O=c1cc(C(F)(F)F)c2cc(Cc3ccc(S(=O)(=O)Nc4ccccc4Cl)cc3)ccc2[nH]1` [Example 18, N-(2-Chlorophenyl)-4-(2-oxo-4-triftuoromethyl-1,2-dihydroquinolin-6-ylmethyl)-benzenesulfonamide], half-maximal inhibition (IC50) required 3.16 µM.
Regarding `O=c1cc(C(F)(F)F)c2cc(Cc3ccc(S(=O)(=O)Nc4cccc5c4OC(F)(F)C(F)(F)O5)cc3)ccc2[nH]1` [Example 47, 4-(2-Oxo-4-trifluoromethyl-1,2-dihydroquinolin-6-ylmethyl)-N-(2,2,3,3-tetrafluoro-2,3-dihydrobenzo[1,4]dioxin-5-yl)-benzenesufonamide], the IC50 is greater than 10 µM.
`CCOc1ccc(NS(=O)(=O)c2ccc(Cc3ccc4oc(=O)cc(C(F)(F)F)c4c3)cc2)cc1` [Example 150, N-(4-Ethoxyphenyl)-4-(2-oxo-4-trifluoromethyl-2H-chromen-6-ylmethyl)-benzenesulfonamide] returned an IC50 of 7.2 µM.
In turn, `CCCN(CC1CC1)S(=O)(=O)c1ccc(Cc2ccc3oc(=O)cc(C(F)(F)F)c3c2)cc1` [Example 104, N-Cyclopropylmethyl-4-(2-oxo-4-trifluoromethyl-2H-chromen-6-ylmethyl)-N-propylbenzenesulfonamide] yielded an IC50 of 1.79 µM.
For the compound `CCN(Cc1ccncc1)S(=O)(=O)c1ccc(Cc2ccc3oc(=O)cc(C(F)(F)F)c3c2)cc1` [Example 98, N-Ethyl-4-(2-oxo-4-trifluoromethyl-2H-chromen-6-ylmethyl)-N-pyridin-4-ylmethyl-benzenesulfonamide], the IC50 was 2.43 µM.
In turn, `O=c1cc(C(F)(F)F)c2cc(Cc3ccc(S(=O)(=O)N(CCO)C4CCCCC4)cc3)ccc2[nH]1` [Example 4, N-Cyclohexyl-N-(2-hydroxyethyl)-4-(2-oxo-4-trifluoromethyl-1,2-dihydroquinolin-6-ylmethyl)benzenesulfonamide] had an IC50 greater than 10 µM.
As for `CN1CCC(N(C)S(=O)(=O)c2ccc(Cc3ccc4oc(=O)cc(C(F)(F)F)c4c3)cc2)CC1` [Example 96, N-Methyl-N-(1-methylpipendin-4-yl)-4-(2-oxo-4-trifluoromethyl-2H-chromen-6-ylmethyl)-benzenesulfonamide], the IC50 is greater than 10 µM.
For the compound `O=c1cc(C(F)(F)F)c2cc(Cc3ccc(S(=O)(=O)Nc4cc5ccccc5cn4)cc3)ccc2o1` [Example 136, N-Isoquinolin-3-yl-4-(2-oxo-4-trifluoromethyl-2H-chromen-6-ylmethyl)benzenesulfonamide], the concentration for half-maximal inhibition (IC50) is greater than 10 µM.
